In one assay the target is T1, human B1R receptor (CHO K1 cells stably transfected with the human B1R gene) (Homo sapiens, UniProt P46663).
T1 construct: expressed in transfected cells; host or cells: CHO K1 cells (Chinese hamster ovary), stably transfected
T1 sequence (P46663 1-353): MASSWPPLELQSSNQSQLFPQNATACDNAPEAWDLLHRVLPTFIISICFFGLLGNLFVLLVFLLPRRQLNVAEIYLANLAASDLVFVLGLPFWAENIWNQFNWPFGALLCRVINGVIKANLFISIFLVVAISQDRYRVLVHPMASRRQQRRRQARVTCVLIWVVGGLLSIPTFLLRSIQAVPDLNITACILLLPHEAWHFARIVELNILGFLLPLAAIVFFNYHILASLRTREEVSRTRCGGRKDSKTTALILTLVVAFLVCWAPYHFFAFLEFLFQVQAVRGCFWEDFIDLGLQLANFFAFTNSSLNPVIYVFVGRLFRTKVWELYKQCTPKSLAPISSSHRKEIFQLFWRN
Put plainly: Functional study on the bradykinin receptor 1 (B1R), Ca2+ fluorescence (Fluo-4) FLIPR/Novostar assay, hB1R cells. Format: cell-based. The settings on record: CHO-K1, read-out: % Inhibition (h-B1R) at 10 μM. A digest of the protocol: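 Ca2+ influx (Fluo-4, peak fluorescence, λex 488/λem 540 nm) was measured in CHO K1 lines expressing rat or human B1R. After a 10 μM test-compound pre-addition scoring % activation, cells received EC80 agonist: Des-Arg9-bradykinin for rat, Lys-Des-Arg9-bradykinin for human. Antagonism was expressed as % of maximum inhibition, with IC50 from varied concentrations.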
For the compound `Cc1cc(N2CCC(N(C)C(=O)c3ccc4c(c3)C(NC(=O)N(C)c3ccccc3Cl)CC4)CC2)cc(C)n1` (centres unmarked) [CC_H-142, 3-[[(2-Chlorophenyl)-methyl-carbamoyl]amino]-N-[1-(2,6-dimethyl-pyridin-4-yl)-piperidin-4-yl]-N-methyl-2,3-dihydro-1H-indene-5-carboxylic acid amide], the inhibition (as a rule, the relative decrease from the control value, in per cent) at 10 µM is 100%.

Regarding `CN(C(=O)c1ccc2c(c1)CCC2NS(=O)(=O)c1c(Cl)cccc1C(F)(F)F)C1CCN(c2ccncc2)CC1` (centres unmarked) [CC_H-143, 1-[[[2-Chloro-6-(trifluoromethyl)-phenyl]sulfonyl]amino]-N-methyl-N-(1-pyridin-4-yl-piperidin-4-yl)-2,3-dihydro-1H-indene-5-carboxylic acid amide], the inhibition at 10 µM amounted to 100%.

Still in this assay, the particulars now being: CHO-K1, read-out: % inhibition (human B1R) at 10 μM.
For `Cc1cc(N2CCC(N(C)C(=O)c3ccc4c(c3)[C@H](N(C(=O)c3ccccc3C)C(C)C)CC4)CC2)nc(C)n1` [Example H-172, (3R)-N-[1-(2,6-Dimethyl-pyrimidin-4-yl)-piperidin-4-yl]-3-[isopropyl-(2-methyl-benzoyl)-amino]-N-methyl-2,3-dihydro-1H-indene-5-carboxylic acid amide], the inhibition at 10 µM amounted to 65%. Turning to `CCN(C(=O)c1cccnc1C(F)(F)F)[C@@H]1CCc2ccc(C(=O)N(C)C3CCN(c4cc(C)nc(C)n4)CC3)cc21` [Example H-174, N-[(1R)-6-[[1-(2,6-Dimethyl-pyrimidin-4-yl)-piperidin-4-yl]-methyl-carbamoyl]-2,3-dihydro-1H-inden-1-yl]-N-ethyl-2-(trifluoromethyl)-pyridine-3-carboxylic acid amide], the inhibition at 10 µM was 100%.

For `Cc1cc(N2CCC(N(C)C(=O)c3ccc4c(c3)[C@H](N(C)C(=O)c3c(F)cccc3Cl)CC4)CC2)nc(C)n1` [Example H-175, (3R)-3-[(2-Chloro-6-fluoro-benzoyl)-methyl-amino]-N-[1-(2,6 dimethyl-pyrimidin-4-yl)-piperidin-4-yl]-N-methyl-2,3-dihydro-1H-indene-5-carboxylic acid amide], the inhibition at 10 µM amounted to 97%. Take `CCN(C(=O)c1c(F)cccc1Cl)[C@@H]1CCc2ccc(C(=O)N(C)C3CCN(c4cc(C)nc(C)n4)CC3)cc21` [Example H-176]: the inhibition at 10 µM is 97%.

`CN(C(=O)c1ccc2c(c1)[C@H](N(C)C(=O)CCC1CCCC1)CC2)C1CCN(c2ccncc2F)CC1` [Example H-188, (3R)-3-(3-Cyclopentyl-propanoyl-methyl-amino)-N-[1-(3-fluoro-pyridin-4-yl)-piperidin-4-yl]-N-methyl-2,3-dihydro-1H-indene-5-carboxylic acid amide]: the inhibition at 10 µM stood at 100%. Same read-out and setting: with `Cc1cc(N2CCC(N(C)C(=O)c3ccc4c(c3)[C@H](NS(=O)(=O)CC(C)C)CC4)CC2)nc(C)n1` [Example H-191, (3R)-N-[1-(2,6-Dimethyl-pyrimidin-4-yl)-piperidin-4-yl]-N-methyl-3-[(2-methyl-propylsulfonyl)amino]-2,3-dihydro-1H-indene-5-carboxylic acid amide] the figure was 100%; with `Cc1cc(N2CCC(N(C)C(=O)c3ccc4c(c3)[C@H](N(C)C(=O)c3cccc(F)c3Cl)CC4)CC2)nc(C)n1` [Example H-195, (3R)-3-[(2-Chloro-3-fluoro-benzoyl)-methyl-amino]-N-[1-(2,6 dimethyl-pyrimidin-4-yl)-piperidin-4-yl]-N-methyl-2,3-dihydro-1H-indene-5-carboxylic acid amide], 100%. On the same count and under the same terms, to `Cc1cc(N2CCC(N(C)C(=O)c3ccc4c(c3)[C@H](N(C(=O)c3cccc(F)c3Cl)C(C)C)CC4)CC2)nc(C)n1` [Example H-196, (3R)-3-[(2-Chloro-3-fluoro-benzoyl)-isopropyl-amino]-N-[1-(2,6-dimethyl-pyrimidin-4-yl)-piperidin-4-yl]-N-methyl-2,3-dihydro-1H-indene-5-carboxylic acid amide] belongs 98%. Same read-out and setting: to `CCN(C(=O)c1cccc(F)c1Cl)[C@@H]1CCc2ccc(C(=O)N(C)C3CCN(c4cc(C)nc(C)n4)CC3)cc21` [Example H-197, (3R)-3-[(2-Chloro-3-fluoro-benzoyl)-ethyl-amino]-N-[1-(2,6-dimethyl-pyrimidin-4-yl)-piperidin-4-yl]-N-meihyl-2,3-dihydro-1H-indene-5-carboxylic acid amide] belongs 100%. Take `Cc1cc(N2CCC(N(C)C(=O)c3cc4c(cc3F)CC[C@H]4N(C(=O)c3ccc(F)cc3Cl)C(C)C)CC2)nc(C)n1` [Example H-198, (3R)-3-[(2-Chloro-4-fluoro-benzoyl)-isopropyl-amino]-N-[1-(2,6-dimethyl-pyrimidin-4-yl)-piperidin-4-yl]-6-fluoro-N-methyl-2,3-dihydro-1H-indene-5-carboxylic acid amide]: the inhibition at 10 µM is 76%.

Take `Cc1cc(N2CCC(N(C)C(=O)c3ccc4c(c3)[C@H](N(C(=O)c3ccc(F)cc3Cl)C(C)C)CC4)CC2)nc(C)n1` [Example H-199, (3R)-3-[(2-Chloro-4-fluoro-benzobenzoyl)-isopropyl-amino]-N-[1-(2,6-dimethyl-pyrimidin-4-yl)-piperidin-4-yl]-N-methyl-2,3-dihydro-1H-indene-5-carboxylic acid amide]: the inhibition at 10 µM came out at 94%. With `CC(C)N(C(=O)c1cccc(F)c1Cl)[C@@H]1CCc2ccc(C(=O)N(C)C3CCN(c4ccncc4)CC3)cc21` [Example H-202, (3R)-3-[(2-Chloro-3-fluoro-benzoyl)-isopropyl-amino]-N-methyl-N-(1-pyridin-4-yl-piperidin-4-yl)-2,3-dihydro-1H-indene-5-carboxylic acid amide], the inhibition at 10 µM amounted to 100%. Turning to `CCN(C(=O)c1cccc(F)c1Cl)[C@@H]1CCc2ccc(C(=O)N(C)C3CCN(c4ccncc4)CC3)cc21` [Example H-203, (3R)-3-[(2-Chloro-3-fluoro-benzoyl)-ethyl-amino]-N-methyl-N-(1-pyridin-4-yl-piperidin-4-yl)-2,3-dihydro-1H-indene-5-carboxylic acid amide], the inhibition at 10 µM was 100%. The same measure, in the same setting: to `CC(C)N(C(=O)c1ccc(F)cc1Cl)[C@@H]1CCc2ccc(C(=O)N(C)C3CCN(c4ccncc4)CC3)cc21` [Example H-204, (3R)-3-[(2-Chloro-4-fluoro-benzoyl)-isopropyl-amino]-N-methyl-N-(1-pyridin-4-yl-piperidin-4-yl)-2,3-dihydro-1H-indene-5-carboxylic acid amide] belongs 100%; to `CN(C(=O)c1ccc2c(c1)[C@H](N(C)C(=O)c1cccc(F)c1Cl)CC2)C1CCN(c2ccncc2)CC1` [Example H-205, (3R)-3-[(2-Chloro-3-fluoro-benzoyl)-methyl-amino]-N-methyl-N-(1-pyridin-4-yl-piperidin-4-yl)-2,3-dihydro-1H-indene-5-carboxylic acid amide], 100%; to `CC(C)N(C(=O)c1ccc(F)cc1Cl)[C@@H]1CCc2cc(F)c(C(=O)N(C)C3CCN(c4ccncc4)CC3)cc21` [Example H-206, (3R)-3-[(2-Chloro-4-fluoro-benzoyl)-isopropyl-amino]-6-fluoro-N-methyl-N-(1-pyridin-4-yl-piperidin-4-yl)-2,3-dihydro-1H-indene-5-carboxylic acid amide], 94%. Same read-out and setting: to `Cc1cc(N2CCC(N(C)C(=O)c3ccc4c(c3)[C@H](N(C(=O)c3cccnc3C(F)(F)F)C(C)C)CC4)CC2)nc(C)n1` [Example H-207] belongs 44%. On the same count and under the same terms, with `CC(C)N(C(=O)c1cccnc1C(F)(F)F)[C@@H]1CCc2ccc(C(=O)N(C)C3CCN(c4ccncc4)CC3)cc21` [Example H-208, N-Isopropyl-N-[(1R)-6-[methyl-(1-pyridin-4-yl-piperidin-4-yl)-carbamoyl]-2,3-dihydro-1H-inden-1-yl]-2-(trifluoromethyl)-pyridine-3-carboxylic acid amide] the figure was 45%; with `Cc1cc(N2CCC(N(C)C(=O)c3cc4c(cc3F)CC[C@H]4N(C(=O)c3cccnc3C(F)(F)F)C(C)C)CC2)nc(C)n1` [Example H-209, N-[(1R)-6-[[1-(2,6-Dimethyl-pyrimidin-4-yl)-piperidin-4-yl]-metyl-carbamoyl]-5-fluoro-2,3-dihydro-1H-inden-1-yl]-N-isopropyl-2-(trifluoromethyl)-pyridine-3-carboxylic acid amide], 10%. In the case of `Cc1cc(N2CCC(N(C)C(=O)c3ccc4c(c3)[C@H](N(C)C(=O)c3cc(F)ccc3Cl)CC4)CC2)nc(C)n1` [Example H-210, (3R)-3-[(2-Chloro-5-fluoro-benzoyl)-methyl-amino]-N-[1-(2,6 dimethyl-pyrimidin-4-yl)-piperidin-4-yl]-N-methyl-2,3-dihydro-1H-indene-5-carboxylic acid amide], the inhibition at 10 µM is 99%. Same read-out and setting: to `CCN(C(=O)c1cc(F)ccc1Cl)[C@@H]1CCc2ccc(C(=O)N(C)C3CCN(c4cc(C)nc(C)n4)CC3)cc21` [Example H-211, (3R)-3-[(2-Chloro-5-fluoro-benzoyl)-ethyl-amino]-N-[1-(2,6-dimethyl-pyrimidin-4-yl)-piperidin-4-yl]-N-meihyl-2,3-dihydro-1H-indene-5-carboxylic acid amide] belongs 99%.

Values taken from US8680159B2, “Bradykinin 1 receptor modulating compounds” (Gruenenthal GmbH, priority 2010, dated 2014).
